In US11209440B2, “T cell balance gene expression, compositions of matters and methods of use thereof” (THE BROAD INSTITUTE, INC., priority 2014, dated 2021):
“Also recorded” adds a separate entry of the source.

T1: Rorγt (Mus musculus, UniProt P51450)
T1 sequence (P51450 1-495 isoform P51450-2): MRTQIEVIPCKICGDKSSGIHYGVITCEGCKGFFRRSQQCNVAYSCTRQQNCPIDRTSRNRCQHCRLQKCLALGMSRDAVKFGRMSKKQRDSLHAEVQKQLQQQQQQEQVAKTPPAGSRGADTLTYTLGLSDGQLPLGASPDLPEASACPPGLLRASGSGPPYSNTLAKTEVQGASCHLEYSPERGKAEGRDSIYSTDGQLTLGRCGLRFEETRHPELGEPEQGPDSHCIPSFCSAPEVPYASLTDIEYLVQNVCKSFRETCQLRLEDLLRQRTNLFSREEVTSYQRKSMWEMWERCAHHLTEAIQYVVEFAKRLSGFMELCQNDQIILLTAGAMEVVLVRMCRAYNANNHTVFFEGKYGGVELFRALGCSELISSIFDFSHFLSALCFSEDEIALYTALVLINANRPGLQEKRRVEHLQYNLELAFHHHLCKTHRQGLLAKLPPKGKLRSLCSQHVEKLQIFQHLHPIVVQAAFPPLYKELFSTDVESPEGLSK


Key:
Rorγt [1] = molecular target: T1, Rorγt; assay: Dual luciferase reporter assay in EL4 cells stably transfected with Rorγt vector; format: cell-based; parameters: expressed in transfected cells; host or cells: EL4 cells, stably transfected; details: for Rorγt driven Il17a transcription: 10 μM arachidonic acid
Procedure: (§1) Lipidome analysis of Th17 cells. (A) WT and CD5L^−/− naïve T cells were differentiated as in FIG. 46B in the presence of cytokines as indicated. Cells and supernatant were harvested at 96 hours and subjected to MS/LC. Three independent mouse experiments were performed. […] (B) Expression of representative metabolites including a cholesterol ester and a PUFA-containing TAG species. FIG. 48 C, D, E, F-J show as follows: (C) Metabolomic analysis of independent mouse experiments where T cells were differentiated under various cytokine conditions as indicated and harvested at 48 h and 96 h. (D,E) Rorγt ChIP from Th17 cells differentiated as described in A. under various conditions as indicated. F-K. Dual luciferase reporter assay was performed in EL4 cells stably transfected with a control vector or Rorγt vector. (F, G) CD5L retroviral vector was cotransfected in F and G at 0, 25, 50 and 100 ng/well. […] All ChIP and luciferase assay are representative of at least 3 independent experiments.

Th17 cells [2] = assay: qPCR and Nanostring signature analysis of Th17 cells treated with free fatty acids; format: cell-based, mouse
Procedure: (§2) (A) Naïve T cells were sorted from either WT or IL-23RGFP reporter mice, activated with plate-bound anti-CD3/anti-CD28 and differentiated with TGFβ1+IL-6 for 48 hours. […] (B) Cells from WT and Rorc^−/− mice were sorted, differentiated and treated with FFA as in A. Cells were harvested for RNA purification and qPCR. (C) Naïve WT and CD5L^−/− T cells were differentiated as in A. Cells were then lifted, washed and replated in fresh media with no addition of cytokines and in the presence of control or 5 uM of arachidonic acid (PUFA). Cytokine profile of T cells were measured after PMA/ionomycin restimulation. […] Another 48 hours later, cells were harvested for nanostring analysis (D) or qPCR (E).
Next, the contribution of lipid saturation to Th17 cell pathogenicity was studied.

Rorγt [3] = molecular target: T1, Rorγt; assay: Rorγt ChIP-PCR in Th17 cells with added SFA or PUFA; format: cell-based; parameters: endogenous in cells; host or cells: wild-type mouse Th17 cells differentiated in vitro from naïve CD4+ T cells; details: WT Th17 cells
Procedure: as §1

Th17 cells [4] = assay: FACS of IL-17 and IL-23R.GFP in Th17 cells treated with free fatty acids; format: cell-based, mouse
Procedure: as §2

Cd5l expression = Cd5l expression by qPCR in TGFβ1+IL-6 Th17 cells expanded with or without IL-23; format: cell-based, mouse; details: naïve T cells differentiated with TGFβ1+IL-6 for 48 h, then IL-23 vs PBS in fresh media
Text: FIG. 45A-45H show Single-cell RNA-seq identifies Cd5l as a novel regulator associated with Th17 cell pathogenicity and expressed only by non-pathogenic Th17 cells. Single-cells were sorted from in-vitro Th17 cells differentiated with TGFβ1+IL-6 (A,B), IL-1β+IL-6+IL-23 (C), TGFβ3+IL-6 (D) and in-vivo Th17 cells from CNS of mice at the peak of EAE (score=3) (D). IL-17A.GFP^+ CD4^+ T cells were sorted in all panels in D. (A) Correlation of CD5L expression in non-pathogenic Th17 cells with the pathogenic signature (Lee, Awasthi et al.). (B) Principal Component Analysis of CD5L expression where the direction of PC1 correlates with pathogenicity. (C, D) Histogram of CD5L expression in single-cell from conditions as indicated. CD5L expression in vitro is validated by qPCR (E, F) and flow cytometry (G). […] CD5L expression was measured by qPCR at 48 h (E) and 72 h (F) and intracellularly by flow cytometry at 48 h (G); (F) At 48 h, cells were lifted from plate, washed and replated in fresh media with IL-23 or PBS and cultured for additional 24 h. […] Cd5l and Il17a expression are measured by qPCR. […] I. IL-17^+ (GFP^+) and IL-17^− (GFP^−) CD4^+ cells were sorted from the gut of naïve mice and the number of RNA transcripts measured by nanostring and normalized based on four house-keeping genes. […]

Il10 transactivation (Rorγt [1]; added to the agonist ligand)	Rorγt-mediated Il23r transactivation (Rorγt [1]; added to the agonist ligand)	Rorγt driven Il17a transcription (Rorγt [1]; cells expressing CD5L)	Rorγt driven Il17a transcription (Rorγt [1]; control cells)	Molecule	316 gene signature of Th17 cell differentiation and function (Th17 cells [2]; CD5L−/− Th17 cells (TGFβ1+IL-6), 5 uM arachidonic acid, Nanostring nCounter)	Il22 expression (Th17 cells [2]; qPCR)	expression of key pathogenicity signature genes Il10, Il23r, Ccl5, Csf2 and Lag3 (Th17 cells [2]; qPCR)	effect on Il17 and Il23r expression in Rorγt−/− Th17 cells (Th17 cells [2]; qPCR, Rorγt−/− cells)	Rorγt binding to the Il10 CNS-9 region (Rorγt [3])	percentage of IL-17+ CD4+ T cells (Th17 cells [4]; CD5L−/− Th17 cells, non-pathogenic condition, 5 uM arachidonic acid)	percentage of IL-23R.GFP+ CD4 T cells (Th17 cells [4]; IL-23RGFP reporter Th17 (TGFβ1+IL-6) expanded with IL-23, 10 uM arachidonic acid or 20 uM palmitic acid, 48 h, FACS)	percentage of IL-17+ CD4 T cells (Th17 cells [4]; WT Th17 (TGFβ1+IL-6) expanded with IL-23, 10 uM arachidonic acid or 20 uM palmitic acid, 48 h, FACS)	Cd5l expression (Cd5l expression)
enhanced	almost completely inhibited	but not in those expressing CD5L	decreased	CCCCC/C=C\C/C=C\C/C=C\C/C=C\CCCC(=O)O [PUFA, arachidonic acid]	resemble WT non-pathogenic Th17 cells	increased	reciprocally regulated	abolished	significantly increased; also recorded: enhanced	reduced percentage	suppressed	suppressed	–
–	–	–	–	IL-23: proinflammatory cytokine; recombinant mouse IL-23 (protein, UniProt Q9EQ14 22-196; P43432 23-335, looked up) Interleukin-23 subunit alpha: VPRSSSPDWAQCQQLSRNLCMLAWNAHAPAGHMNLLREEEDEETKNNVPRIQCEDGCDPQGLKDNSQFCLQRIRQGLAFYKHLLDSDIFKGEPALLPDSPMEQLHTSLLGLSQLLQPEDHPRETQQMPSLSSSQQWQRPLLRSKILRSLQAFLAIAARVFAHGAATLTEPLVPTA Interleukin-12 subunit beta: MWELEKDVYVVEVDWTPDAPGETVNLTCDTPEEDDITWTSDQRHGVIGSGKTLTITVKEFLDAGQYTCHKGGETLSHSHLLLHKKENGIWSTEILKNFKNKTFLKCEAPNYSGRFTCSWLVQRNMDLKFNIKSSSSSPDSRAVTCGMASLSAEKVTLDQRDYEKYSVSCQEDVTCPTAEETLPIELALEARQQNKYENYSTSFFIRDIIKPDPPKNLQMKPLKNSQVEVSWEYPDSWSTPHSYFSLKFFVRIQRKKEKMKETEEGCNQKGAFLVEKTSTEVQCKGGNVCVQAQDRYYNSSCSKWACVPCRVRS	–	–	–	–	–	–	–	–	significantly suppressed
